PubChem BioAssay AID1552 (Sanford-Burnham Center for Chemical Genomics, 2009)
Active and inactive are the calls of the source. No rule for the calls is given here.

target: Ubiquitin-conjugating enzyme E2 N (Homo sapiens) (UniProt P61088); assay: NMR detection of UBE2N ligand binding – biophysical, purified protein (AID 1552); conditions: NMR binding to purified UBE2N
Sequence (P61088 whole entry, looked up): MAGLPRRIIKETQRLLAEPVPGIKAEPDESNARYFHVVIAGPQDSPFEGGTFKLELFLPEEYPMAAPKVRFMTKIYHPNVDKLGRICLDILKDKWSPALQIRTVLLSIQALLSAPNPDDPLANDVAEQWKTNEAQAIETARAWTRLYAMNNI

For `Nc1cc(C(F)(F)F)ccc1N1CCOCC1`, which Kd is on record?
Its Kd is > 4 mM (inactive).

Which Kd does the source give for `Cc1n[nH]c(C)c1N` here?
Its Kd is > 4 mM (inactive).

Which Kd does the source give for `O=C(NC1CCS(=O)(=O)C1)C1CCCCC1` (stereo not drawn) here?
Its Kd is > 4 mM (inactive).

`Nc1ccc(-n2cccn2)cc1` was tested. Which Kd did it give?
Its Kd is > 4 mM (inactive).

With `CC1(C)CN=C(Nc2nc3ccccc3s2)S1` as the compound, how does the Kd read?
Its Kd is > 4 mM (inactive).

`O=S1(=O)CCC(Nc2ccccc2)C1` (stereo not drawn) was tested. Which Kd did it give?
The Kd was > 4 mM (inactive).

How did the Kd turn out when `O=C(Nc1cccnc1)c1c(F)cccc1F` was run?
The Kd was > 4 mM (inactive).

How did the Kd turn out when `O=S1(=O)C=CC(Nc2ccccc2)C1` (stereo not drawn) was run?
Its Kd is > 4 mM (inactive).

`Cc1nnc(SCC(=O)Nc2ccccc2)[nH]c1=O` was tested. Which Kd did it give?
The Kd was > 4 mM (inactive).

`O=C(O)c1cncc(-c2cccs2)c1` was tested. Which Kd did it give?
Its Kd is > 4 mM (inactive).

Which Kd does the source give for `O=C(Nc1ccccc1)c1cnc2n(c1=O)CCS2` here?
Its Kd is > 4 mM (inactive).

For `Nc1c(C(=O)O)sc2ncccc12`, which Kd is on record?
The Kd was > 4 mM (inactive).

`Clc1ccccc1OCCn1ccnc1` was tested. Which Kd did it give?
Its Kd is > 4 mM (inactive).

With `c1cncc(C(N2CCOCC2)N2CCOCC2)c1` as the compound, how does the Kd read?
Its Kd is > 4 mM (inactive).

How did the Kd turn out when `O=C(c1ncc[nH]1)c1ccccc1C(=O)N1CCOCC1` was run?
Its Kd is > 4 mM (inactive).

How did the Kd turn out when `CCCS(=O)(=O)N1CCN(c2ccccc2F)CC1` was run?
The Kd was > 4 mM (inactive).

`COc1cccc(NC(=O)c2ncn[nH]2)c1` was tested. Which Kd did it give?
Its Kd is > 4 mM (inactive).

Which Kd does the source give for `O=C(c1ccco1)N1CCCN(C(=O)c2ccco2)CC1` here?
The Kd was > 4 mM (inactive).

Which Kd does the source give for `CC(=O)O[C@@H]1C[C@@]2(C)[C@H](c3ccoc3)C[C@H]3O[C@]32[C@]2(C)C(=O)C(O)=C3C(C)(C)C(=O)C=C[C@]3(C)C12` (stereo partly drawn) here?
The Kd was > 4 mM (inactive).

For `NS(=O)(=O)c1ccccc1Cl`, which Kd is on record?
Its Kd is > 4 mM (inactive).

With `O=C(Nc1nncs1)Oc1ccccc1` as the compound, how does the Kd read?
The Kd was > 4 mM (inactive).

With `S=C(c1ccc(N2CCOCC2)cc1)N1CCOCC1` as the compound, how does the Kd read?
The Kd was > 4 mM (inactive).

For `CC(=O)Oc1ccc(-c2nc(-c3cccnc3)no2)cc1`, which Kd is on record?
The Kd was > 4 mM (inactive).

How did the Kd turn out when `N#CCCn1ccnc1-c1ccccc1` was run?
Its Kd is > 4 mM (inactive).

Which Kd does the source give for `COc1cc2cc[n+]3cc4c(OC)c(OC)ccc4cc3c2cc1OC` here?
Its Kd is > 4 mM (inactive).

Which Kd does the source give for `O=c1[nH]c(O)c(C=NC2CC2)c(=O)[nH]1` here?
The Kd was > 4 mM (inactive).

`Cc1nnc(SCC(N)=O)c2ccccc12` was tested. Which Kd did it give?
The Kd was > 4 mM (inactive).

`Cc1noc(C)c1C(=O)Nc1sc(C)c(C)c1C#N` was tested. Which Kd did it give?
Its Kd is > 4 mM (inactive).

For `O=C(Nc1ccccc1)c1cccc(N2C(=O)CCC2=O)c1`, which Kd is on record?
Its Kd is > 4 mM (inactive).

`O=C(Nc1ccncc1)c1c(F)cccc1F` was tested. Which Kd did it give?
Its Kd is > 4 mM (inactive).

For `C[C@@H]1CCC2[C@](C)(CO)[C@@H](O)CC[C@]2(C)[C@@]12CC[C@@](CO)(CCO)O2` (stereo partly drawn), which Kd is on record?
Its Kd is > 4 mM (inactive).

Which Kd does the source give for `O=C1NC(=O)C(=Cc2cccs2)C(=O)N1` here?
The Kd was > 4 mM (inactive).

Which Kd does the source give for `OC1(c2ccc(Cl)cc2)CCNCC1` here?
The Kd was > 4 mM (inactive).

`O=C(CSc1ncnc2ccccc12)NCCCO` was tested. Which Kd did it give?
Its Kd is > 4 mM (inactive).

Which Kd does the source give for `CC1(C)Cn2c(nnc2-c2ccccc2)S1` here?
Its Kd is > 4 mM (inactive).

For `CC(=O)Nn1c(=O)[nH]c2ccccc2c1=O`, which Kd is on record?
Its Kd is > 4 mM (inactive).

For `C[C@@H]1CC[C@@]2(OC1)OC1CC3C4CC=C5C[C@@H](O)CC[C@]5(C)C4CC[C@]3(C)C1[C@@H]2C` (stereo partly drawn), which Kd is on record?
Its Kd is > 4 mM (inactive).

For `Cc1onc(-c2ccccc2)c1CN`, which Kd is on record?
The Kd was > 4 mM (inactive).

With `Cc1ccc(/C=C/C(=O)O)cc1S(=O)(=O)NCCO` as the compound, how does the Kd read?
The Kd was > 4 mM (inactive).

`CC1=CC2C(CC1=O)C(C)=CCC2C(C)C` (stereo not drawn) was tested. Which Kd did it give?
The Kd was > 4 mM (inactive).

Which Kd does the source give for `COC(=O)N1CCN(c2ccc(C(C)=O)cc2)CC1` here?
The Kd was > 4 mM (inactive).

Which Kd does the source give for `O=C(Nc1ccccc1C(F)(F)F)N1CCCCCC1` here?
Its Kd is > 4 mM (inactive).

How did the Kd turn out when `c1cncc(C2CCCCN2)c1` (stereo not drawn) was run?
The Kd was > 4 mM (inactive).

`O=C(CNC(=O)c1cccs1)NC1=NCCS1` was tested. Which Kd did it give?
Its Kd is > 4 mM (inactive).

`Cn1c(=O)[nH]c(=O)c2nsnc21` was tested. Which Kd did it give?
The Kd was > 4 mM (inactive).

How did the Kd turn out when `COc1ccc(C2(C)NC(=O)NC2=O)cc1` (stereo not drawn) was run?
Its Kd is > 4 mM (inactive).

For `CC(=O)NC(=S)Nc1ccc(N(C)C(C)=O)cc1`, which Kd is on record?
Its Kd is > 4 mM (inactive).

Which Kd does the source give for `Cc1c(CCO)c(=O)n2c([nH]c3ccccc32)c1C#N` here?
The Kd was > 4 mM (inactive).
